Assay [1] has as its system K101R/E138D/K103N HIV-1. The experiment in a line: HIV-1 drug susceptibility assay, K101R/E138D/K103N virus. Type of assay: cell-based. As to conditions: for EC50: Human immunodeficiency virus 1, head: P4/R5 cells, footnote: TZM-bl cells, mean ± SD, read-out: EC50, inhibition of HIV-1 replication. Here is the method: (§1) The genes for K103N, E138D/K101R and K101R/K103N/E138D RT were cloned into HIV-1LAI ([11]). NNRTI susceptibility was determined in TZM-bl cells as described previously ([21]).

In assay [2] the test system is WT HIV-1. The experiment in a line: HIV-1 drug susceptibility assay (inhibition of HIV-1 replication), WT virus. In kind it is cell-based. As to conditions: Human immunodeficiency virus 1, head: P4/R5 cells, footnote: TZM-bl cells, mean ± SD, at least three experiments. As to the method: as §1
Assay [3] has as its system K101R/E138D HIV-1. The experiment in a line: HIV-1 drug susceptibility assay, K101R/E138D virus. Type of assay: cell-based. As to conditions: for EC50: Human immunodeficiency virus 1, head: P4/R5 cells, footnote: TZM-bl cells, mean ± SD, read-out: EC50, inhibition of HIV-1 replication. Here is the method: as §1
Assay [4] deals with K103N HIV-1. The experiment in a line: HIV-1 drug susceptibility assay, K103N virus. Type of assay: cell-based. As to the method:
as §1

The target of assay [5] is WT RT–T/P complex (Human immunodeficiency virus type 1 group M subtype B, UniProt P04585, C625V/C867S/D837C/T726C). On the set-up: species or system HIV-1. As to conditions: for Eapp (apparent FRET energy transfer, fingers-thumb): mean ± SD. Here is the method:
Single-molecule total internal reflection fluorescence (TIRF) microscopy was performed as described previously ([19]). For the PIFE assays, Cy3-labeled T/P molecules were surface-tethered to a polyethylene glycol (PEG) treated flow cell via a biotin:streptavidin:biotin-PEG linkage. The concentrations of T/P were typically 20 pM, which provided an optimal surface density of ∼100 molecules per field of view. […] For the FRET assays, unlabeled T/P was surface-tethered by introducing 2 μM T/P into the flow cell to allow formation of a surface-dense layer of T/P substrates. Labeled RT (40 pM) was then introduced into the flow cell and allowed to bind to the T/P. Unbound RT was removed by washing. The PIFE and FRET data were analyzed as described in Supplementary Materials and Methods.
All experiments were performed in 50 mM Tris-HCl, pH 7.5, 25 mM NaCl, and 5 mM MgCl2.
The buffer used in TIRF microscopy experiments also contained 0.1 mg/ml glucose oxidase, 0.02 mg/ml catalase, 0.4% wt/v β-d-glucose, and 2 mM Trolox. Unless otherwise indicated, the TTP, EFV and NVP concentrations were held at 50 μM, 500 nM and 1 μM, respectively, […]
Unlabeled T/P was surface tethered by introducing 2 µM T/P into the flow cell to allow formation of a surface-dense layer of T/P substrates, which promoted observation of RT-T/P complexes. 40 pM of labeled RT was then introduced into the flow cell and allowed to bind to the T/P. Unbound RT was removed by extensive washing. Low concentrations of RT followed by a wash step eliminated excess background noise and/or saturation of the EMCCD. Based on the relative distribution of donor and acceptor intensities observed in the TIRFM fields of view, […]
analyzed. Eapp was calculated using the equation: […]
where ID and IA denote background-corrected donor and acceptor intensities, respectively.
RT. Eapp histograms were subsequently constructed by collecting the pre-photobleach regions of all traces visibly resulting in donor and acceptor photobleaching, binned into 25 bins, and then fit with single Gaussian functions (see Supplementary Figure 3). Thumb/fingers distances reported in Supplementary Table 1 were derived from the fitted Eapp values using the Förster equation: […]
where r is the distance between the dipoles of Cy3 and Cy5, and Ro is the empirically calculated

Assay [6] addresses T1, K103N RT–T/P complex (Human immunodeficiency virus type 1 group M subtype B, UniProt P04585, K690N).
T1 construct: asymmetric heterodimer composed of a 66-kDa (p66) subunit and a p66-derived 51-kDa (p51) subunit; made in house
Type of assay: binding, HIV-1. As to conditions: K103N vs WT RT–T/P complex. As to the method: (§2) Fluorescence anisotropy experiments were performed as previously described ([17],[18]). Assays were carried out using a fluorescein-labeled T/P substrate. The concentration of T/P in all experiments was 5 nM (in a 400-μl cuvette). Data were analyzed as described in the Supplementary Materials and Methods section.
(§3) -ddC-3’) was annealed to a 5’-biotinylated 35 nucleotide DNA […]
(§4) template (5’-biotin-[…]-3’). We also […]
(§5) performed PIFE experiments using a 21 nucleotide DNA primer (5’-Cy3- […]
(§6) -ddC-3’) annealed to the same template. For the single-pair FRET experiments, the same T/P was used, but it lacked 5’-Cy3. For the anisotropy […]
(§7) Fluorescence anisotropy experiments were performed as previously described (5, 6), using a Varian Cary Eclipse fluorescence spectrophotometer. […]
(§8) 5 and 10 nm respectively. […] Anisotropy (r) was calculated as: r= (IVV-G·IVH)/(IVV+2·G·IVH) (1) where IVV is the fluorescence intensity with vertically oriented excitation and emission polarizers and IVH is the fluorescence intensity with a vertically oriented excitation polarizer and a horizontally oriented emission polarizer. The G-factor, defined as G=IHV/IHH, was measured […]
(§9) For all theoretical calculations, r was calculated using the Perrin equation: r=ro/(1+τ/ θ)                 (2) where ro is the fundamental anisotropy, τ  the lifetime and θ  the rotational correlation time (7). […]
(§10) analyzed. […]

The target of assay [7] is T2, K101R/E138D HIV-1 RT (Human immunodeficiency virus type 1 group M subtype B, UniProt P04585, E725D/K688R).
T2 construct: asymmetric heterodimer composed of a 66-kDa (p66) subunit and a p66-derived 51-kDa (p51) subunit; made in house
The experiment in a line: Inhibition of RT RNA-dependent DNA polymerase activity, K101R/E138D RT. In kind it is biochemical. As to the method:
(§11) The RNA- and DNA-dependent DNA polymerase activities of the purified and labeled RTs were assessed as described previously ([14]).

The target of assay [8] is T3, WT HIV-1 RT (Human immunodeficiency virus type 1 group M subtype B, UniProt P04585).
T3 construct: asymmetric heterodimer composed of a 66-kDa (p66) subunit and a p66-derived 51-kDa (p51) subunit; made in house
The experiment in a line: biochemical. As to conditions: mean ± SD, at least four experiments, read-out: IC50, inhibition of RT RNA-dependent DNA polymerase activity. Here is the method: as §11

Assay [9] addresses T4, WT RT–T/P complex (Human immunodeficiency virus type 1 group M subtype B, UniProt P04585).
T4 construct: asymmetric heterodimer composed of a 66-kDa (p66) subunit and a p66-derived 51-kDa (p51) subunit; made in house
The experiment in a line: biochemical. The note with it: fluorescence anisotropy, 5 nM T/P, read-out: Kd, NNRTI binding to the RT–T/P complex. More on the design: species or system HIV-1. As to the method:
as §2, §3, §4, §5, §6, §7, §8, §9, §10
On the technique in general: Fluorescence polarisation rises when a labelled molecule tumbles more slowly, as on binding a larger partner.

Assay [10] concerns the target T5, E138D HIV-1 RT (Human immunodeficiency virus type 1 group M subtype B, UniProt P04585, E725D).
T5 construct: asymmetric heterodimer composed of a 66-kDa (p66) subunit and a p66-derived 51-kDa (p51) subunit; made in house
The experiment in a line: Inhibition of RT RNA-dependent DNA polymerase activity, E138D RT. In kind it is biochemical. As to the method:
as §11

For assay [11], the target named is T6, K101R HIV-1 RT (Human immunodeficiency virus type 1 group M subtype B, UniProt P04585, K688R).
T6 construct: asymmetric heterodimer composed of a 66-kDa (p66) subunit and a p66-derived 51-kDa (p51) subunit; made in house
The experiment in a line: Inhibition of RT RNA-dependent DNA polymerase activity, K101R RT. Type of assay: biochemical. Here is the method:
as §11

In assay [12] the target is T1, K103N RT–T/P complex. The experiment in a line: dTTP binding to RT-T/P complex by fluorescence anisotropy, K103N. On the set-up: species or system HIV-1. As to conditions: presence vs absence of EFV. As to the method:
as §2, §3, §4, §5
-ddC-3’) annealed to the same template. For the single-pair FRET experiments, the same T/P was used, but it lacked 5’-Cy3. For the anisotropy experiments we used a 19 nt DNA primer (5’-Fluorescein-dT-[…]- […]
Fluorescence anisotropy experiments were performed as previously described (5, 6), using a Varian Cary Eclipse fluorescence spectrophotometer. […] Anisotropy (r) was calculated as: r= (IVV-G·IVH)/(IVV+2·G·IVH) (1) where IVV is the fluorescence intensity with vertically oriented excitation and emission polarizers and IVH is the fluorescence intensity with a vertically oriented excitation polarizer and a horizontally oriented emission polarizer. The G-factor, defined as G=IHV/IHH, was measured before each experiment to ensure a value of ~ 1.65. […]
For fluorescein, empirically determined values of ro = […] and τ = 4.1 ns were used (8, 9). θ was calculated using the equation: […]
as §10

The mark [13] stands for this setting: Human immunodeficiency virus 1, K103N virus, head: P4/R5 cells, footnote: TZM-bl cells, mean ± SD, read-out: EC50, inhibition of HIV-1 replication.

A word on the EC50: it is the concentration giving half of the maximal effect. One may read the IC50 as the midpoint of a concentration-inhibition curve.

“And” between values parts separate entries of the source, which are not always exact repeats. Identical values can stand only once. Like-named read-outs stand apart in the source and are kept apart here. Where only a bound is given, the exact number is not on record here.

Turning to `O=C1Nc2ccc(Cl)cc2[C@@](C#CC2CC2)(C(F)(F)F)O1` [Efavirenz, efavirenz], the concentration for a half-maximal effect (EC50) in assay [1] was 15.9 ± 2.4 nM; in assay [2], 1.3 ± 0.2 nM; in [3] (K101R/E138D virus), 0.2 nM; in assay [4] (Human immunodeficiency virus 1, read-out: EC50, inhibition of HIV-1 replication), 64 ± 18.7 nM. Also, in assay [3] (E138D/K101R vs WT), the “Increase of susceptibility (as measured by IC50 and EC50) by the E138D/K101R mutation” value is on record as “up to 7 fold”.
`Cc1ccnc2c1NC(=O)c1cccnc1N2C1CC1` [Nevirapine, nevirapine]: the EC50 in assay [1] is above 200 nM; in assay [2] it was 24.6 ± 5.9 nM; in [3] (K101R/E138D virus), 21.6 ± 16.8 nM; in [4] (setting [13]), above 200 nM. Further, the “Eapp (apparent FRET energy transfer, fingers-thumb)” value was 0.68 ± 0.18 and 0.68 in assay [5] (WT RT-T/P plus NNRTI (EFV 500 nM, NVP 1 μM), centre of Gaussian fit, listed as NVP); 0.72 ± 0.14 in assay [5] (WT RT-T/P-dNTP plus NNRTI). Besides, in assay [5] (WT RT–T/P complex, NNRTI vs no inhibitor), the “Average opening of the fingers and thumb” value is on record as 2.0 Å. In addition, the “Effect on fingers/thumb FRET of the ternary complex” value in assay [5] (WT RT–T/P–dNTP complex, NNRTI infused) was “did not affect the FRET histogram”. The “Decrease of binding affinity by the K103N substitution” value in assay [6] is around 10 fold.
In the case of `Cc1cc(/C=C/C#N)cc(C)c1Nc1ccnc(Nc2ccc(C#N)cc2)n1` [Rilpivirine, rilpivirine], the results for the “Fold-R (EC50 mutant/EC50 WT)” value in assay [1], in assay [3] (K101R/E138D virus) and in assay [4] (K103N virus) were 0.3, 0.2 and 1.1, respectively. Further, the EC50 is 0.12 ± 0.03 nM in [1], 0.37 ± 0.06 nM in [2], 0.06 ± 0.01 nM in [3] (K101R/E138D virus) and 0.4 ± 0.1 nM in assay [4] (setting [13]). Moreover, the “Fold-R (IC50 mutant/IC50 WT)” value came to 0.5 in assay [7], 0.4 in assay [10] and 0.7 in assay [11]. Besides, the IC50 was 11.2 ± 0.8 nM in [7] (mean ± SD), 22.5 ± 2.2 nM in [8], 8.3 ± 1.2 nM in assay [10] (mean ± SD) and 15.5 ± 7.6 nM in assay [11] (mean ± SD). The Kd in [9] was determined as 82.5 nM. Also, the “Effect of the K103N substitution on NNRTI binding affinity” value in [6] is recorded as “did not decrease the binding affinity”.
Take `Cc1cn([C@H]2C[C@H](O)[C@@H](COP(=O)(O)OP(=O)(O)OP(=O)(O)O)O2)c(=O)[nH]c1=O` [dTTP]: the “Increase of Kd for dTTP binding in the presence of inhibitor” value in [12] is reported as 3 fold.

The record behind these values is PMC4191400 (Nucleic Acids Research, 2014).
